Source: ChEMBL document CHEMBL1127594, “Inhibitors of acyl-CoA:cholesterol O-acyltransferase. 11. Structure-activity relationships of several series of compounds derived from N-(chlorocarbonyl) isocyanate” (J Med Chem, 1994)

What was measured:
[1] = system: Rattus norvegicus; experiment: In vivo hypocholesterolemic activity was measured in an acute, cholesterol-fed rat model (APCC) at 30 mg/kg dose.; assay type: functional
[2] = molecular target: O-acyltransferase (Oryctolagus cuniculus, UniProt G1SFD9); experiment: In vitro Acyl coenzyme A:cholesterol acyltransferase inhibitory activity (IAI) was determined by measuring the incorporation of [1-14C]oleolyl-CoA into cholesterol esters by intestinal microsomes isolated from cholesterol-fed rabbits; design: species or system Intestine
Chain of O-acyltransferase (G1SFD9 1-524): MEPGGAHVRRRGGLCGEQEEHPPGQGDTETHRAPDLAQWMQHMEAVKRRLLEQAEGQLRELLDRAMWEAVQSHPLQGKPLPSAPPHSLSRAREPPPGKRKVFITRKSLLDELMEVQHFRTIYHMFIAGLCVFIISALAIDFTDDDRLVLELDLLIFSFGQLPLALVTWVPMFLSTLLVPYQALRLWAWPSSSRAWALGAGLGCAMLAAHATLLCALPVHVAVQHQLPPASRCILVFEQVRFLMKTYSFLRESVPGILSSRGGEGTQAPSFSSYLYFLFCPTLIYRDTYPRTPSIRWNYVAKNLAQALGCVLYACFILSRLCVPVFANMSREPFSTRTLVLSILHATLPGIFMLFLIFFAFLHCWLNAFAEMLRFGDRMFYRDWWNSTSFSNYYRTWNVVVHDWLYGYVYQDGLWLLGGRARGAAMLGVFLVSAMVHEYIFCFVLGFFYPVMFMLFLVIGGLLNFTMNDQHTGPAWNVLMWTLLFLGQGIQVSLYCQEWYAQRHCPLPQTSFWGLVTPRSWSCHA

Row | Compound | Delta TC [1] [%] | IC50 [2] [nM]
1 | CC(C)c1cccc(C(C)C)c1NC(=O)NC(=O)N(c1ccccc1)c1ccccc1 | <-49 | 340
2 | Cc1cccc(C)c1SC(=O)NC(=O)Sc1c(C)cccc1C | -13 | > 5000
3 | CC(C)c1cccc(C(C)C)c1OC(=O)NC(=O)NC(c1ccccc1)c1ccccc1 | -4 | –
4 | CC(C)(C)c1cccc(C(C)(C)C)c1OC(=O)NC(=O)Oc1c(C(C)(C)C)cccc1C(C)(C)C | <-23 | 1200
5 | CCCCCCCCCCCCCCN(C)C(=O)NC(=O)Nc1c(C(C)C)cccc1C(C)C | – | 1700
6 | CC(C)c1cccc(C(C)C)c1NC(=O)NC(=O)Oc1c(C(C)C)cccc1C(C)C | <-25 | 980
7 | CCCCCCCCCCCCOC(=O)NC(=O)Oc1c(C(C)C)cccc1C(C)C | <-52 | 21
8 | CC(C)c1cccc(C(C)C)c1OC(=O)NC(=O)SCCCc1ccccc1 | <-63 | 69
9 | CCCCCCCCCCCCC(C)(C)OC(=O)NC(=O)Nc1c(C(C)C)cccc1C(C)C | – | 65
10 | CC(C)c1cccc(C(C)C)c1OC(=O)NC(=O)SCCc1ccccc1 | -30 | 880
11 | O=C(NC(=O)Oc1c(-c2ccccc2)cccc1-c1ccccc1)Oc1c(-c2ccccc2)cccc1-c1ccccc1 | 0 | 230
12 | CC(C)c1cccc(C(C)C)c1NC(=O)NC(=O)OC(c1ccccc1)c1ccccc1 | -3 | 7800
13 | CCCCCCCCCCCCCOC(=O)NC(=O)Oc1c(C(C)C)cccc1C(C)C | <-69 | 9
14 | CCCCCCCCN(CCCCCCCC)C(=O)NC(=O)Nc1c(C(C)C)cccc1C(C)C | 3 | 350
15 | CC(C)c1cccc(C(C)C)c1NC(=O)N(C)C(=O)N(c1ccccc1)c1ccccc1 | – | 440
16 | CCCCCCCCCCCCSC(=O)NC(=O)Oc1c(C(C)C)cccc1C(C)C | <-63 | 16
17 | CC(C)c1cccc(C(C)C)c1OC(=O)NC(=O)OCCCc1ccccc1 | -24 | 660
18 | CC(C)c1cccc(C(C)C)c1NC(=O)NC(=O)N1c2ccccc2Sc2ccccc21 | -6 | 1900
19 | CC(C)c1cccc(C(C)C)c1OC(=O)NC(=O)N(c1ccccc1)c1ccccc1 | -3 | 170
20 | CCCCCCCCCCCCCCC(C)OC(=O)NC(=O)Oc1c(C(C)C)cccc1C(C)C (racemic) | <-43 | 58
21 | CCCCCCCCCCCCCCOC(=O)NC(=O)Oc1c(C(C)C)cccc1C(C)C | <-59 | 10
22 | CCCCCCCC(C)OC(=O)NC(=O)Oc1c(C(C)C)cccc1C(C)C (racemic) | <-56 | 97
23 | CC(C)c1cccc(C(C)C)c1OC(=O)NC(=O)Oc1ccccc1 | <-29 | 1800
24 | CC(C)c1cccc(C(C)C)c1OC(=O)NC(=O)Oc1cccc2ccccc12 | – | 3700
25 | CC(C)c1cccc(C(C)C)c1NC(=O)NC(=O)N1c2ccccc2Cc2ccccc21 | -18 | 890
26 | CC(C)c1cccc(C(C)C)c1OC(=O)NC(=O)OCc1ccccc1 | -23 | 77

Row | Compound | Delta TC [1] [%] | IC50 [2] [nM]
27 | CCCCCCCCCCCCC(C)OC(=O)N(C)C(=O)Oc1c(C(C)C)cccc1C(C)C (racemic) | -8 | > 1000
28 | CCCCCCCCCCCCC(C)(C)OC(=O)NC(=O)Oc1c(C(C)C)cccc1C(C)C | <-51 | 21
29 | CCCCC[C@H](C)OC(=O)NC(=O)Oc1c(C(C)C)cccc1C(C)C | -25 | 98
30 | CCCCCCCCCCCCC(C)SC(=O)NC(=O)Oc1c(C(C)C)cccc1C(C)C (racemic) | <-60 | 8
31 | CCCCCC(C)OC(=O)NC(=O)Oc1c(C(C)C)cccc1C(C)C (racemic) | <-60 | 102
32 | CCCCCCCCCCCCC(C)OC(=O)NC(=O)Oc1c(F)cccc1F (racemic) | <-35 | > 1000
33 | CCCCCCCCC(C)OC(=O)NC(=O)Nc1c(C(C)C)cccc1C(C)C (configuration not stated) | <-22 | 750
34 | CCCCCCCCCCCCCCC(C)OC(=O)NC(=O)Nc1c(C(C)C)cccc1C(C)C (configuration not stated) | <-26 | 6800
35 | CC(C)c1cccc(C(C)C)c1OC(=O)NC(=O)SCc1ccco1 | <-51 | 470
36 | CC(C)c1cccc(C(C)C)c1NC(=O)NC(=O)N1CCC(c2ccccc2)CC1 | 3 | 890
37 | CC(C)c1cccc(C(C)C)c1NC(=O)NC(=O)Nc1c(C(C)C)cccc1C(C)C | 0 | –
38 | CC(C)c1cccc(C(C)C)c1OC(=O)NC(=O)Sc1c(C(C)C)cccc1C(C)C | <-20 | 3200
39 | CCCCCCCCCCCOC(=O)NC(=O)Oc1c(C(C)C)cccc1C(C)C | <-65 | 140
40 | CCCCCCCCCCCCSC(=O)NC(=O)Oc1c(OC)cc(OC)cc1OC | <-59 | 250
41 | CCCCCCOC(=O)NC(=O)Oc1c(C(C)C)cccc1C(C)C | <-38 | 53
42 | CCCCCCCCCCCCCCOC(=O)NC(=O)Oc1c(OC)cc(OC)cc1OC | -15 | > 5000
43 | CCCCCCCC(C)OC(=O)NC(=O)Nc1c(C(C)C)cccc1C(C)C (configuration not stated) | <-24 | 390
44 | CCCCCC(C)OC(=O)NC(=O)Nc1c(C(C)C)cccc1C(C)C (configuration not stated) | <-22 | 1060
45 | CC(C)c1cccc(C(C)C)c1OC(=O)NC(=O)SCc1ccccc1 | <-43 | 440
46 | CC(C)c1cccc(C(C)C)c1OC(=O)NC(=O)OC(c1ccccc1)c1ccccc1 | <-44 | 350
47 | CCCCCCCCCCCCOC(=O)NC(=O)Sc1c(C(C)C)cccc1C(C)C | -4 | –
48 | COC(=O)C(OC(=O)NC(=O)Oc1c(C(C)C)cccc1C(C)C)c1ccccc1 (configuration not stated) | -3 | 940
49 | CCCCC[C@@H](C)OC(=O)NC(=O)Oc1c(C(C)C)cccc1C(C)C | <-49 | 130
50 | CCCCCCCCCCCCCCCCOC(=O)NC(=O)Oc1c(C(C)C)cccc1C(C)C | <-70 | –
51 | CCCCCCCCOC(=O)NC(=O)Oc1c(C(C)C)cccc1C(C)C | <-47 | 250
52 | CCCCC(C)(C)OC(=O)NC(=O)Oc1c(C(C)C)cccc1C(C)C | -29 | 64

Row | Compound | Delta TC [1] [%] | IC50 [2] [nM]
53 | CC(C)c1cccc(C(C)C)c1NC(=O)NC(=O)N1CCCC1 | -7 | –
54 | CC(C)c1cccc(C(C)C)c1OC(=O)NC(=O)SC1CCCCC1 | <-63 | 97
55 | CCCCCCCCC(C)OC(=O)NC(=O)Oc1c(C(C)C)cccc1C(C)C (racemic) | <-54 | 270
56 | CC(C)c1cccc(C(C)C)c1OC(=O)NC(=O)SCCN1CCOCC1 | <-33 | 900
57 | CCCCCCCCCCCCOC(=O)NC(=O)Nc1c(C(C)C)cccc1C(C)C | <-38 | 120
58 | CCCCCCCCCCCCCCCCCCOC(=O)NC(=O)Oc1c(C(C)C)cccc1C(C)C | <-35 | 1000
59 | CCCCCCCCCCCCC(C)OC(=O)NC(=O)Nc1c(C(C)C)cccc1C(C)C (configuration not stated) | <-33 | 46
60 | CCCCCCCCCCC(C)OC(=O)NC(=O)Nc1c(C(C)C)cccc1C(C)C (configuration not stated) | <-26 | –
61 | CCCCCCCCCCC(C)OC(=O)NC(=O)Oc1c(C(C)C)cccc1C(C)C (racemic) | <-66 | 49
62 | CC(C)c1cccc(C(C)C)c1OC(=O)NC(=O)SCc1ccc(Cl)cc1 | <-50 | 160
63 | CC(C)c1cccc(C(C)C)c1NC(=O)NC(=O)N(Cc1ccccc1)C(C)C | <-22 | 750
64 | CCCCCCCCCCCCSC(=O)NC(=O)Sc1c(C(C)C)cccc1C(C)C | <-36 | > 5000
65 | CCCCCCCCCCOC(=O)NC(=O)Oc1c(C(C)C)cccc1C(C)C | <-44 | 74
66 | CCCCCCCCCCCCC(C)OC(=O)NC(=O)Oc1c(C(C)C)cccc1C(C)C (racemic) | <-50 | 17
67 | CCCCN(CCCC)C(=O)NC(=O)Nc1c(C(C)C)cccc1C(C)C | <-30 | 250
68 | CC(C)c1cccc(C(C)C)c1OC(=O)NC(=O)Sc1ccccc1 | <-37 | > 5000
69 | CCCCCCCCCCCSC(=O)NC(=O)Oc1c(C(C)C)cccc1C(C)C | <-54 | 210
70 | CCCCCCCCSC(=O)NC(=O)Oc1c(C(C)C)cccc1C(C)C | <-63 | 160
71 | CC(C)c1cccc(C(C)C)c1NC(=O)NC(=O)NC(c1ccccc1)c1ccccc1 | 4 | –
72 | CCCCCCCCCCC(C)(C)COC(=O)NC(=O)Oc1c(C(C)C)cccc1C(C)C | <-72 | 20
73 | CCN(CC)C(=O)NC(=O)Nc1c(C(C)C)cccc1C(C)C | -16 | –
74 | Cc1cccc(C)c1OC(=O)NC(=O)Oc1c(C)cccc1C | 4 | > 5000
75 | CCCCCCCCCCSC(=O)NC(=O)Oc1c(C(C)C)cccc1C(C)C | <-52 | 130
76 | CC(C)c1cccc(C(C)C)c1NC(=O)NC(=O)N(Cc1ccccc1)Cc1ccccc1 | -14 | 1040
77 | CC(C)c1cccc(C(C)C)c1OC(=O)NC(=O)Oc1c(C(C)C)cccc1C(C)C | -24 | 110
